Measured values taken from patent publication US20260035382A1, “COMPOUNDS AS SUMO ACTIVATING ENZYME INHIBITORS” (WIGEN BIOMEDICINE TECHNOLOGY (SHANGHAI) CO., LTD., priority 2022, published 2026).
Read-outs that look alike come from different tables or passages of the source.

Target: SAE (Homo sapiens (Human), UniProt Q9UBT2)
Experiment: In vitro inhibitory activity assay against SAE (SUMO-2/3 immunofluorescence in HCT116 cells)
Assay type: cell-based
Details: 6 h incubation, read-out: SUMO IF IC50
Procedure: HCT116 cells were seeded into a 96-well black transparent bottom plate at about 20000/well with 90 μL per well. The cells were incubated at 37° C. overnight for 24 h. The test compounds were 10-fold diluted to give a final concentration, and 10 μL of the diluted compounds was added to each well of the cell culture plate. The mixture was incubated at 37° C. for 6 h. The cells were then washed gently, the culture medium was discarded, and the cells were washed once with 200 μL of 0.1% o PBST. 50 μL of 4% PFA was added to each well, and the cells were immobilized at room temperature for 20 min, and then washed with PBS 2-3 times. 50 μL of 0.2% o Triton X-100 was added to each well, and the cells were left to stand at room temperature for 15 min and washed with 0.1% PBST 3 times. 100 uL of 3% BSA (0.6 g BSA+20 mL PBS) was added to each well, and the mixture was blocked at 37° C. for 30 min. After the blocking was completed, the liquid was removed and a primary antibody (SUMO-2/3 (181H8) Rabbit mAb, 1:400 dilution) was prepared with […]. 30 μL of the diluted primary antibody was added to each well, and the mixture was incubated at 4° C. overnight. The cells were washed 3 times with 200 μL of 0.1% o PBST. A FITC secondary antibody (Fluorescein (FITC)-conjugated Affinipure Goat Anti-Rabbit IgG (H+L), 1:300 dilution) was further prepared with 1% o BSA, and 40 μL of the diluted secondary antibody was added to each well. The mixture was incubated at room temperature in the dark for 2 h, and then the cells were washed 4 times with 0.1% PBST. The fluorescence signal of the sample was detected and compared to the DMSO group, and the inhibition rate and IC50 were calculated.

Chain of SAE (Q9UBT2 whole entry): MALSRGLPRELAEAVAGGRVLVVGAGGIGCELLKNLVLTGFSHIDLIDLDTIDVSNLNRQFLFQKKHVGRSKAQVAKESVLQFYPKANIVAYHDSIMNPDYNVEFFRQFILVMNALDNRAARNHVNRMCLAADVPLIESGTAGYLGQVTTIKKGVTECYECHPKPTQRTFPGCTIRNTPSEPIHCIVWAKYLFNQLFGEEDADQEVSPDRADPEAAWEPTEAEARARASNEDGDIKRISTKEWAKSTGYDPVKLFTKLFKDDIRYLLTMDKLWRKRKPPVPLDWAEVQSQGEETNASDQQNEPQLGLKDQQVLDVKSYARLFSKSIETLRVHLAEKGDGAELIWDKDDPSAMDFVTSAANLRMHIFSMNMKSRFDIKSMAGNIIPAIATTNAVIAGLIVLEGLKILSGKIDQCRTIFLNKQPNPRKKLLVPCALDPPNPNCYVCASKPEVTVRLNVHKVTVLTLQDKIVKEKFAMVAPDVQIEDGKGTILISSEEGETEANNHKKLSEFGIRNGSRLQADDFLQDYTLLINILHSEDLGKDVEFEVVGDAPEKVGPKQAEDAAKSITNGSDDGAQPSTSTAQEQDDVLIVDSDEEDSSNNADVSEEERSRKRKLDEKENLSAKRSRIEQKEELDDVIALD
Chain of SAE (Q9UBE0 whole entry partner): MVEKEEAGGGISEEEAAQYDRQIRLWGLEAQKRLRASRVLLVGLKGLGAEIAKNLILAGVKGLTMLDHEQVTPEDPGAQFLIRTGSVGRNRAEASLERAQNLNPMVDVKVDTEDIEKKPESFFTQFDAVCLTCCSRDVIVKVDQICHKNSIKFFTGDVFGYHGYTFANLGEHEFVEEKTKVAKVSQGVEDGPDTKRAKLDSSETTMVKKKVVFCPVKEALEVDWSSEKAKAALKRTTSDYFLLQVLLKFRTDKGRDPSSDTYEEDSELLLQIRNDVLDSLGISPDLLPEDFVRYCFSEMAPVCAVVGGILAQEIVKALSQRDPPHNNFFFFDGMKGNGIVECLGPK

Compound | IC50 (class symbols) [nM] | IC50 (numeric values) [nM]
CN1Cc2sc(C(=O)c3cncnc3N[C@@H]3C[C@H](COS(N)(=O)=O)[C@@H](O)C3)cc2C2(C1)OCCc1ccc(F)cc12 (stereo partly drawn) [Compound 256] | 50 to 200 | –
NS(=O)(=O)OC[C@H]1C[C@@H](Nc2ncncc2C(=O)c2cc3c(s2)COCC32NCCc3ccc(F)cc32)C[C@@H]1O (stereo partly drawn) [Compound 16] | 50 to 200 | –
COc1ccc2c(c1)[C@@]1(CCCc3sc(C(=O)c4cncnc4N[C@@H]4C[C@H](COS(N)(=O)=O)[C@@H](O)C4)cc31)NCC2 [Compound 180] | > 200 | –
NS(=O)(=O)OC[C@H]1C[C@@H](Nc2ncncc2C(=O)c2cc3c(s2)CCC32NCCc3cc(Cl)c(F)cc32)C[C@@H]1O (stereo partly drawn) [Compound 75] | 50 to 200 | –
NS(=O)(=O)OC[C@H]1C[C@@H](Nc2ncncc2C(=O)c2cc3c(s2)CC=C[C@]32NCCc3ccc(Cl)cc32)C[C@@H]1O [Compound 217] | ≤ 50 | –
Cc1ccc2c(c1)[C@@]1(CCCc3sc(C(=O)c4cncnc4N[C@@H]4C[C@H](COS(N)(=O)=O)[C@@H](O)C4)cc31)NCC2 [Compound 202] | 50 to 200 | –
NS(=O)(=O)OC[C@H]1C[C@@H](Nc2ncncc2C(=O)c2cc3c(s2)CCCC32NCCc3ccc(C(F)(F)F)cc32)C[C@@H]1O (stereo partly drawn) [Compound 25] | 50 to 200 | –
NS(=O)(=O)OC[C@H]1C[C@@H](Nc2ncncc2C(=O)c2cc3c(s2)CCC[C@@]32NCCc3ncc(Cl)cc32)C[C@@H]1O [Compound 140] | > 200 | –
NS(=O)(=O)OC[C@H]1C[C@@H](Nc2ncncc2C(=O)c2cc3c(s2)CC[C@@]32OCCc3ccc(Cl)cc32)C[C@@H]1O [Compound 242] | > 200 | –
NS(=O)(=O)OC[C@H]1C[C@@H](Nc2ncncc2C(=O)c2cc3c(s2)CCC[C@]32OCCc3ccc(Cl)cc32)C[C@@H]1O [Compound 222] | ≤ 50 | –
NS(=O)(=O)OC[C@H]1C[C@@H](Nc2ncncc2C(=O)c2cc3c(s2)CCC[C@@]32OCCc3ccc(Cl)cc32)C[C@@H]1O [Compound 221] | > 200 | –
NS(=O)(=O)OC[C@H]1C[C@@H](Nc2ncncc2C(=O)c2cc3c(s2)CCC32NCCc3cc(Cl)c(Cl)cc32)C[C@@H]1O (stereo partly drawn) [Compound 70] | 50 to 200 | –
NS(=O)(=O)OC[C@H]1C[C@@H](Nc2ncncc2C(=O)c2cc3c(s2)CSCC32NCCc3ccc(Cl)cc32)C[C@@H]1O (stereo partly drawn) [Compound 91] | ≤ 50 | –
CCN1Cc2sc(C(=O)c3cncnc3N[C@@H]3C[C@H](COS(N)(=O)=O)[C@@H](O)C3)cc2[C@]2(C1)OCCc1ccc(Cl)cc12 [Compound 267] | ≤ 50 | –
NS(=O)(=O)OC[C@H]1C[C@@H](Nc2ncncc2C(=O)c2cc3c(s2)COC[C@@]32NCCc3ccc(Cl)cc32)C[C@@H]1O [Compound 20] | – | > 1000
NS(=O)(=O)OC[C@H]1C[C@@H](Nc2ncncc2C(=O)c2cc3c(s2)CCC[C@]32OCCc3ccccc32)C[C@@H]1O [Compound 246] | 50 to 200 | –
NS(=O)(=O)OC[C@H]1C[C@@H](Nc2ncncc2C(=O)c2cc3c(s2)COC[C@]32NCCc3c(F)cc(Cl)cc32)C[C@@H]1O [Compound 111] | 50 to 200 | –
CN1Cc2sc(C(=O)c3cncnc3N[C@@H]3C[C@H](COS(N)(=O)=O)[C@@H](O)C3)cc2[C@@]2(C1)OCCc1ccc(F)cc12 [Compound 257] | > 200 | –
N#Cc1ccc2c(c1)[C@]1(CCc3sc(C(=O)c4cncnc4N[C@@H]4C[C@H](COS(N)(=O)=O)[C@@H](O)C4)cc31)OCC2 [Compound 287] | > 200 | –
CC(C)N1Cc2sc(C(=O)c3cncnc3N[C@@H]3C[C@H](COS(N)(=O)=O)[C@@H](O)C3)cc2[C@@]2(C1)NCCc1ccc(Cl)cc12 [Compound 185] | – | > 1000
NS(=O)(=O)OC[C@H]1C[C@@H](Nc2ncncc2C(=O)c2cc3c(s2)OC[C@]32NCCc3ccccc32)C[C@@H]1O [Compound 57] | 50 to 200 | –
NS(=O)(=O)OC[C@H]1C[C@@H](Nc2ncncc2C(=O)c2cc3c(s2)CCCC32NCCc3cc(F)c(Cl)cc32)C[C@@H]1O (stereo partly drawn) [Compound 27] | ≤ 50 | –
NS(=O)(=O)OC[C@H]1C[C@@H](Nc2ncncc2C(=O)c2cc3c(s2)CCC[C@]32NCCc3ccncc32)C[C@@H]1O [Compound 214] | 50 to 200 | –
CC1=CC2(NCCc3ccc(Cl)cc32)c2cc(C(=O)c3cncnc3N[C@@H]3C[C@H](COS(N)(=O)=O)[C@@H](O)C3)sc21 (stereo partly drawn) [Compound 157] | 50 to 200 | –
NS(=O)(=O)OC[C@H]1C[C@@H](Nc2ncncc2C(=O)c2cc3c(s2)CCC[C@@]32NC(=O)Cc3ccc(Cl)cc32)C[C@@H]1O [Compound 164] | > 200 | –
NS(=O)(=O)OC[C@H]1C[C@@H](Nc2ncncc2C(=O)c2cc3c(s2)CCC[C@@]32OCCc3ccccc32)C[C@@H]1O [Compound 245] | > 200 | –

Compound | IC50 (class symbols) [nM] | IC50 (numeric values) [nM]
NS(=O)(=O)OC[C@H]1C[C@@H](Nc2ncncc2C(=O)c2cc3c(s2)C=CC[C@]32NCCc3ccc(Cl)cc32)C[C@@H]1O [Compound 216] | ≤ 50 | –
NS(=O)(=O)OC[C@H]1C[C@@H](Nc2ncncc2C(=O)c2cc3c(s2)CSC[C@@]32NCCc3ccc(F)cc32)C[C@@H]1O [Compound 89] | > 200 | –
NS(=O)(=O)OC[C@H]1C[C@@H](Nc2ncncc2C(=O)c2cc3c(s2)OCC32NCCc3ccc(Cl)cc32)C[C@@H]1O (stereo partly drawn) [Compound 61] | 50 to 200 | –
NS(=O)(=O)OC[C@H]1C[C@@H](Nc2ncncc2C(=O)c2cc3c(s2)CCCC32NCCc3ncc(Cl)cc32)C[C@@H]1O (stereo partly drawn) [Compound 139] | 50 to 200 | –
NS(=O)(=O)OC[C@H]1C[C@@H](Nc2ncncc2C(=O)c2cc3c(s2)C(F)=CC32NCCc3ccc(Cl)cc32)C[C@@H]1O (stereo partly drawn) [Compound 154] | ≤ 50 | –
NS(=O)(=O)OC[C@H]1C[C@@H](Nc2ncncc2C(=O)c2cc3c(s2)C(=O)C[C@]32NCCc3ccc(Cl)cc32)C[C@@H]1O [Compound 168] | 50 to 200 | –
NS(=O)(=O)OC[C@H]1C[C@@H](Nc2ncncc2C(=O)c2cc3c(s2)C=C[C@]32NCCc3ccc(F)cc32)C[C@@H]1O [Compound 178] | ≤ 50 | –
NS(=O)(=O)OC[C@H]1C[C@@H](Nc2ncncc2C(=O)c2cc3c(s2)CCCC32NCCc3ccncc32)C[C@@H]1O (stereo partly drawn) [Compound 34] | 50 to 200 | –
NS(=O)(=O)OC[C@H]1C[C@@H](Nc2ncncc2C(=O)c2cc3c(s2)OCC[C@]32NCCc3ccc(Cl)cc32)C[C@@H]1O [Compound 218] | 50 to 200 | –
CCN1Cc2sc(C(=O)c3cncnc3N[C@@H]3C[C@H](COS(N)(=O)=O)[C@@H](O)C3)cc2C2(C1)NCCc1ccc(Cl)cc12 (stereo partly drawn) [Compound 181] | ≤ 50 | –
NS(=O)(=O)OC[C@H]1C[C@@H](Nc2ncncc2C(=O)c2cc3c(s2)OC[C@]32NCCc3ccc(Cl)cc32)C[C@@H]1O [Compound 63] | 50 to 200 | –
NS(=O)(=O)OC[C@H]1C[C@@H](Nc2ncncc2C(=O)c2cc3c(s2)CCC[C@@]32NCCc3ccc(Cl)cc32)C[C@@H]1O [Compound 5] | – | > 1000
NS(=O)(=O)OC[C@H]1C[C@@H](Nc2ncncc2C(=O)c2cc3c(s2)COC[C@@]32NCCc3ccc(Cl)c(Cl)c32)C[C@@H]1O [Compound 95] | > 200 | –
NS(=O)(=O)OC[C@H]1C[C@@H](Nc2ncncc2C(=O)c2nc3c(s2)CCC[C@]32NCCc3ccc(Cl)cc32)C[C@@H]1O [Compound 126] | > 200 | –
NS(=O)(=O)OC[C@H]1C[C@@H](Nc2ncncc2C(=O)c2cc3c(s2)CCC32NCCc3cc(F)c(F)cc32)C[C@@H]1O (stereo partly drawn) [Compound 68] | 50 to 200 | –
NS(=O)(=O)OC[C@H]1C[C@@H](Nc2ncncc2C(=O)c2cc3c(s2)CCC[C@]32NCCc3ccccc32)C[C@@H]1O [Compound 3] | ≤ 50 | –
NS(=O)(=O)OC[C@H]1C[C@@H](Nc2ncncc2C(=O)c2cc3c(s2)COCC32NCCc3ccccc32)C[C@@H]1O (stereo partly drawn) [Compound 13] | > 200 | –
CC1=C[C@]2(NCCc3ccc(Cl)cc32)c2cc(C(=O)c3cncnc3N[C@@H]3C[C@H](COS(N)(=O)=O)[C@@H](O)C3)sc21 [Compound 159] | ≤ 50 | –
CN1Cc2sc(C(=O)c3cncnc3N[C@@H]3C[C@H](COS(N)(=O)=O)[C@@H](O)C3)cc2C2(C1)OCCc1ccccc12 (stereo partly drawn) [Compound 253] | 50 to 200 | –
NS(=O)(=O)OC[C@H]1C[C@@H](Nc2ncncc2C(=O)c2cc3c(s2)CCCC32NCCc3cnc(Cl)cc32)C[C@@H]1O (stereo partly drawn) [Compound 133] | 50 to 200 | –
NS(=O)(=O)OC[C@H]1C[C@@H](Nc2ncncc2C(=O)c2cc3c(s2)CSCC32NCCc3ccc(Cl)nc32)C[C@@H]1O (stereo partly drawn) [Compound 145] | 50 to 200 | –
NS(=O)(=O)OC[C@H]1C[C@@H](Nc2ncncc2C(=O)c2cc3c(s2)CCC[C@]32NCCc3ncc(Cl)cc32)C[C@@H]1O [Compound 141] | ≤ 50 | –
NS(=O)(=O)OC[C@H]1C[C@@H](Nc2ncncc2C(=O)c2nc3c(s2)CSCC32NCCc3ccc(Cl)cc32)C[C@@H]1O (stereo partly drawn) [Compound 127] | > 200 | –
[2H]C1([2H])CN[C@@]2(CCCc3sc(C(=O)c4cncnc4N[C@@H]4C[C@H](COS(N)(=O)=O)[C@@H](O)C4)cc32)c2cc(Cl)ccc21 [Compound 200] | – | > 1000
NS(=O)(=O)OC[C@H]1C[C@@H](Nc2ncncc2C(=O)c2cc3c(s2)CSC[C@]32NCCc3ccc(F)cc32)C[C@@H]1O [Compound 90] | ≤ 50 | –
